Measured values published in article PMC10610134, “Verubulin (Azixa) Analogues with Increased Saturation: Synthesis, SAR and Encapsulation in Biocompatible Nanocontainers Based on Ca^2+ or Mg^2+ Cross-Linked Alginate” (Pharmaceuticals, 2023).

tested on: MCF7′, A549, VA13, HEK293T cell lines; assay: MTT cytotoxicity, SAR statements over the cell line panel; format: cell-based, human; conditions: MTT, 64 h
Text: (§1) The obtained series of verubulin analogues 2a–r (which also included three by-products isolated in the reactions according to Scheme 2) were initially evaluated for cytotoxicity against commonly used human breast cancer cell line MCF7′ (fast-growth subclone), human lung epithelial carcinoma cell line A549 and etiologically non-cancer immortalized lung fibroblast cell line VA13 (WI38 subline 2RA). Cytotoxicity against immortalized human embryonic kidney cell line HEK293T, characterized by a high growth rate, was also studied regarding cytotoxicity against non-cancerous fast-growth cells. A standard MTT assay was performed; verubulin (1) served as a positive reference. The data obtained are presented in Table 1 (for dose–response curves, see Supplementary Materials).
(§2) The cytotoxicity of the substances was tested using the 3-(4,5-dimethylthiazol-2-yl)2,5-diphenyl tetrazolium bromide (MTT) assay with some modifications. A total of 2500 cells per well for the MCF7′, HEK293T, A549 cell lines or 4000 cells per well for the VA-13 cell line were plated out in 135 μL of DMEM-F12 media (Gibco, Thermo Fisher Scientific, Waltham, MA, USA) in a 96-well plate and incubated in the 5% CO2 incubator for the first 20 h without treatment. Then, 15.8 μL of media–DMSO solutions of tested substances (final DMSO concentrations in the media were 0.5% or less) was added to the cells (triplicate each) and cells were treated for 64 h with 0.023 mg/L–50 mg/L (eight dilutions) of compounds 2f,n,o,r; 1.14 μg/L–2.5 mg/L (eight dilutions) of compounds 2a,b,d,g,h,k,l,p,q; 57.2 ng/L–125 μg/L (eight dilutions) of compounds 2e,i,j; 22.9 ng/L–50 μg/L (eight dilutions) of compounds 1,2c,m. Doxorubicin was used as a control substance. Then, the MTT reagent (Paneco LLC, Moscow, Russia) was added to cells up to a final concentration of 0.5 g/L (10 × stock solution in PBS was used) and incubated for 2 h at 37 °C in the incubator, under an atmosphere of 5% CO2. Then, the MTT solution was discarded, and 140 μL of DMSO (PharmaMed LLC, Moscow, Russia) was added. The plates were swayed on a shaker (120 rpm) to dissolve the formazan. The absorbance was measured using a microplate reader (VICTOR X5 Light Plate Reader, PerkinElmer, Waltham, MA, USA) at a wavelength of 555 nm (in order to measure formazan concentration). The results were used to construct dose–response graphs and to estimate IC50 values (IC50 is the concentration resulting in half of the maximal cytotoxic effect) with GraphPad Prism V, GraphPadSoftware, Inc., San Diego, CA, USA.

| SMILES | cytotoxicity, in words |
| --- | --- |
| COc1ccc2c(c1)CCCN2c1nc2c(c(N3CCCc4cc(OC)ccc43)n1)CCCC2 [Compound 2p, 2,4-Bis(6-methoxy-3,4-dihydroquinolin-1(2H)-yl)-5,6,7,8-tetrahydroquinazoline] | moderately cytotoxic |

same assay, conditions: conformational restriction of 2k

| SMILES | activity relative to 2k |
| --- | --- |
| COc1ccc2c(c1)CCCN2c1nc(C)nc2c1CCCCC2 [Compound 2l, 4-(6-Methoxy-3,4-dihydroquinolin-1(2H)-yl)-2-methyl-6,7,8,9-tetrahydro-5H-cyclohepta[d]pyrimidine] | seven to twelve times less active |

same assay, conditions: pair A549/VA13

| SMILES | selectivity towards tumor cells |
| --- | --- |
| COc1ccc(N(C)c2nc(C)nc3c2CCCCC3)cc1 [Compound 2k, N-(4-Methoxyphenyl)-N,2-dimethyl-6,7,8,9-tetrahydro-5H-cyclohepta[d]pyrimidin-4-amine] | no selectivity |

same assay, conditions: ring B enlarged to seven-membered

| SMILES | reduction of cytotoxicity relative to 2c |
| --- | --- |
| COc1ccc(N(C)c2nc(C)nc3c2CCCCC3)cc1 [Compound 2k, N-(4-Methoxyphenyl)-N,2-dimethyl-6,7,8,9-tetrahydro-5H-cyclohepta[d]pyrimidin-4-amine] | more than 10 times |

tested on: human breast cancer cell line MCF7′; assay: MTT cytotoxicity assay, MCF7′; format: cell-based; conditions: MCF7, 64 h treatment, MTT, read-out: IC50, nM MCF7′
Text: as §1
(§3) Human breast cancer cell line MCF7′ and human lung adenocarcinoma cell line A549 were kindly provided by Dr. S. Dmitriev (Lomonosov Moscow State University), immortalized human fibroblast cell line VA13 (WI38 subline 2RA) was kindly provided by Dr. M. Rubtsova (Lomonosov Moscow State University), human embryonic kidney HEK293T cell line was kindly provided by Dr. E. Knyazhanskaya (Lomonosov Moscow State University). MCF7′, VA13, A549 and HEK293T cell lines were maintained in DMEM/F-12 (Thermo Fisher Scientific, Waltham, MA, USA) culture medium containing 10% fetal bovine serum (Thermo Fisher Scientific, Waltham, MA, USA) and 50 μg/mL penicillin and 0.05 mg/mL streptomycin at 37 °C (Thermo Fisher Scientific, Waltham, MA, USA) in 5% CO2. Cells were maintained at 37 °C in a humidified MCO-18AC incubator (Sanyo, Tokyo, Japan) supplied with 5% CO2. Cell cultures were tested for the absence of mycoplasma and validated by STR.
as §2

| SMILES | IC50 |
| --- | --- |
| Cc1ccc(N(C)c2nc(C)nc3c2CCCC3)cc1 [Compound 2b, N,2-Dimethyl-N-(4-methylphenyl)-5,6,7,8-tetrahydroquinazolin-4-amine] | 97 ± 7 nM |
| Cc1ccc(N(C)c2nc(N)nc3c2CCCC3)cc1 [Compound 2h, N^4-Methyl-N^4-(4-methylphenyl)-5,6,7,8-tetrahydroquinazolinyl-2,4-diamine] | 210 ± 15 nM |
| COc1ccc2c(c1)CCCN2c1nc(C)nc2c1CCCCC2 [Compound 2l, 4-(6-Methoxy-3,4-dihydroquinolin-1(2H)-yl)-2-methyl-6,7,8,9-tetrahydro-5H-cyclohepta[d]pyrimidine] | 360 ± 70 nM |
| Cc1nc2c(c(N3CCCc4ccccc43)n1)CCCC2 [Compound 2d, 4-(3,4-Dihydroquinolin-1(2H)-yl)-2-methyl-5,6,7,8-tetrahydroquinazoline] | 9100 ± 2200 nM |
| COc1ccc(N(C)c2nc(C)nc3c2CCCCC3)cc1 [Compound 2k, N-(4-Methoxyphenyl)-N,2-dimethyl-6,7,8,9-tetrahydro-5H-cyclohepta[d]pyrimidin-4-amine] | 53 ± 7 nM |
| COc1ccc2c(c1)CCCN2c1nc2c(c(N3CCCc4cc(OC)ccc43)n1)CCCC2 [Compound 2p, 2,4-Bis(6-methoxy-3,4-dihydroquinolin-1(2H)-yl)-5,6,7,8-tetrahydroquinazoline] | 660 ± 150 nM |

tested on: not given; assay: not given; conditions: not given

| SMILES | melting point |
| --- | --- |
| Cc1ccc(N(C)c2nc(C)nc3c2CCCC3)cc1 [Compound 2b, N,2-Dimethyl-N-(4-methylphenyl)-5,6,7,8-tetrahydroquinazolin-4-amine] | 91 to 92 °C |
| Cc1ccc(N(C)c2nc(N)nc3c2CCCC3)cc1 [Compound 2h, N^4-Methyl-N^4-(4-methylphenyl)-5,6,7,8-tetrahydroquinazolinyl-2,4-diamine] | 135 to 136 °C |
| COc1ccc2c(c1)CCCN2c1nc(C)nc2c1CCCCC2 [Compound 2l, 4-(6-Methoxy-3,4-dihydroquinolin-1(2H)-yl)-2-methyl-6,7,8,9-tetrahydro-5H-cyclohepta[d]pyrimidine] | 122 to 123 °C |
| Cc1nc2c(c(N3CCCc4ccccc43)n1)CCCC2 [Compound 2d, 4-(3,4-Dihydroquinolin-1(2H)-yl)-2-methyl-5,6,7,8-tetrahydroquinazoline] | 118 to 119 °C |
| COc1ccc(N(C)c2nc(C)nc3c2CCCCC3)cc1 [Compound 2k, N-(4-Methoxyphenyl)-N,2-dimethyl-6,7,8,9-tetrahydro-5H-cyclohepta[d]pyrimidin-4-amine] | 92 to 93 °C |

tested on: microtubules in carcinoma A549 cells; assay: Immunofluorescent microscopy of microtubules; format: cell-based, human; conditions: 0.03 μM, A549, positive control
Method: Since verubulin is known to stimulate microtubule disassociation, we performed an immunofluorescent microscopy study to determine the response of microtubule dynamics in carcinoma A549 cells to the treatment with representative compounds 2b,c,e. […] Aberrant cell morphology—contraction and rounding (Figure 2A,B) or contraction and elongation (Figure 2C)—was also observed.
A549 cells were seeded on coverslips (treated with poly-l-lysine at a concentration of 33 mg/L for an hour). Compounds were added up to the corresponding concentration after 24 h attachment and growth of the cells. Then, cells were incubated 24 h.
The cells were fixed with methanol (precooled in liquid nitrogen for 20 min), no additional permeabilization was performed. To prevent non-specific binding, cells were incubated with 4% BSA in PBS for one hour. Then, a solution of mouse monoclonal antibodies against alpha-tubulin cross-linked with Alexa 488 fluoroform (Thermo Fisher Scientific, Waltham, MA, USA, 32-2588) at a concentration of 5 μg/mL in 1% BSA solution in PBS was added to the cells, and the slides were incubated at +5 °C in a water chamber for 24 h. After the end of the incubation time, the cells were washed several times with PBS buffer solution and fixed on a glass slide with Moviol. Next day, cells were imaged with a ZEISS LSM 900 (ZEISS Microscopy, GmbH, Germany) and images processed with ImageJ.

| SMILES | effect on microtubules (MTs) |
| --- | --- |
| COc1ccc(/C=C\c2cc(OC)c(OC)c(OC)c2)cc1O [CA-4, combretastatin A-4, reference compound] | full depolymerization of MTs |

same assay, conditions: 10 μM, 24 h, A549

| SMILES | effect on microtubules (MTs) |
| --- | --- |
| Cc1ccc(N(C)c2nc(C)nc3c2CCCC3)cc1 [Compound 2b, N,2-Dimethyl-N-(4-methylphenyl)-5,6,7,8-tetrahydroquinazolin-4-amine] | depolymerization of MTs |

same assay, conditions: 5–10 μM, 24 h, A549

| SMILES | effect on microtubules |
| --- | --- |
| Cc1ccc(N(C)c2nc(C)nc3c2CCCC3)cc1 [Compound 2b, N,2-Dimethyl-N-(4-methylphenyl)-5,6,7,8-tetrahydroquinazolin-4-amine] | pronounced or complete disruption of microtubules |

tested on: human lung epithelial carcinoma cell line A549; assay: MTT cytotoxicity assay, A549; format: cell-based; conditions: A549, 64 h treatment, MTT, read-out: IC50, nM A549
Text: as §1, §3, §2

| SMILES | IC50 |
| --- | --- |
| Cc1ccc(N(C)c2nc(C)nc3c2CCCC3)cc1 [Compound 2b, N,2-Dimethyl-N-(4-methylphenyl)-5,6,7,8-tetrahydroquinazolin-4-amine] | 110 ± 8 nM |
| Cc1ccc(N(C)c2nc(N)nc3c2CCCC3)cc1 [Compound 2h, N^4-Methyl-N^4-(4-methylphenyl)-5,6,7,8-tetrahydroquinazolinyl-2,4-diamine] | 310 ± 23 nM |
| COc1ccc2c(c1)CCCN2c1nc(C)nc2c1CCCCC2 [Compound 2l, 4-(6-Methoxy-3,4-dihydroquinolin-1(2H)-yl)-2-methyl-6,7,8,9-tetrahydro-5H-cyclohepta[d]pyrimidine] | 790 ± 19 nM |
| Cc1nc2c(c(N3CCCc4ccccc43)n1)CCCC2 [Compound 2d, 4-(3,4-Dihydroquinolin-1(2H)-yl)-2-methyl-5,6,7,8-tetrahydroquinazoline] | 12600 nM |
| COc1ccc(N(C)c2nc(C)nc3c2CCCCC3)cc1 [Compound 2k, N-(4-Methoxyphenyl)-N,2-dimethyl-6,7,8,9-tetrahydro-5H-cyclohepta[d]pyrimidin-4-amine] | 79 ± 10 nM |
| COc1ccc2c(c1)CCCN2c1nc2c(c(N3CCCc4cc(OC)ccc43)n1)CCCC2 [Compound 2p, 2,4-Bis(6-methoxy-3,4-dihydroquinolin-1(2H)-yl)-5,6,7,8-tetrahydroquinazoline] | 640 ± 76 nM |

tested on: immortalized lung fibroblast cell line VA13 (WI38 subline 2RA); assay: MTT cytotoxicity assay, VA13; format: cell-based; conditions: Homo sapiens, VA-13; 64 h treatment, MTT; read-out: IC50, nM VA13
Text: as §1, §3, §2

| SMILES | IC50 |
| --- | --- |
| Cc1ccc(N(C)c2nc(C)nc3c2CCCC3)cc1 [Compound 2b, N,2-Dimethyl-N-(4-methylphenyl)-5,6,7,8-tetrahydroquinazolin-4-amine] | 62 ± 8 nM |
| Cc1ccc(N(C)c2nc(N)nc3c2CCCC3)cc1 [Compound 2h, N^4-Methyl-N^4-(4-methylphenyl)-5,6,7,8-tetrahydroquinazolinyl-2,4-diamine] | 150 ± 14 nM |
| COc1ccc2c(c1)CCCN2c1nc(C)nc2c1CCCCC2 [Compound 2l, 4-(6-Methoxy-3,4-dihydroquinolin-1(2H)-yl)-2-methyl-6,7,8,9-tetrahydro-5H-cyclohepta[d]pyrimidine] | 260 ± 80 nM |
| Cc1nc2c(c(N3CCCc4ccccc43)n1)CCCC2 [Compound 2d, 4-(3,4-Dihydroquinolin-1(2H)-yl)-2-methyl-5,6,7,8-tetrahydroquinazoline] | 3000 ± 700 nM |
| COc1ccc(N(C)c2nc(C)nc3c2CCCCC3)cc1 [Compound 2k, N-(4-Methoxyphenyl)-N,2-dimethyl-6,7,8,9-tetrahydro-5H-cyclohepta[d]pyrimidin-4-amine] | 22 ± 6 nM |
| COc1ccc2c(c1)CCCN2c1nc2c(c(N3CCCc4cc(OC)ccc43)n1)CCCC2 [Compound 2p, 2,4-Bis(6-methoxy-3,4-dihydroquinolin-1(2H)-yl)-5,6,7,8-tetrahydroquinazoline] | 290 ± 74 nM |

tested on: immortalized human embryonic kidney cell line HEK293T; assay: MTT cytotoxicity assay, HEK293T; format: cell-based; conditions: HEK-293T, 64 h treatment, MTT, read-out: IC50, nM HEK293T
Text: as §1, §3, §2

| SMILES | IC50 |
| --- | --- |
| Cc1ccc(N(C)c2nc(C)nc3c2CCCC3)cc1 [Compound 2b, N,2-Dimethyl-N-(4-methylphenyl)-5,6,7,8-tetrahydroquinazolin-4-amine] | 89 ± 3 nM |
| Cc1ccc(N(C)c2nc(N)nc3c2CCCC3)cc1 [Compound 2h, N^4-Methyl-N^4-(4-methylphenyl)-5,6,7,8-tetrahydroquinazolinyl-2,4-diamine] | 170 ± 18 nM |
| COc1ccc2c(c1)CCCN2c1nc(C)nc2c1CCCCC2 [Compound 2l, 4-(6-Methoxy-3,4-dihydroquinolin-1(2H)-yl)-2-methyl-6,7,8,9-tetrahydro-5H-cyclohepta[d]pyrimidine] | 450 ± 100 nM |
| Cc1nc2c(c(N3CCCc4ccccc43)n1)CCCC2 [Compound 2d, 4-(3,4-Dihydroquinolin-1(2H)-yl)-2-methyl-5,6,7,8-tetrahydroquinazoline] | 7300 ± 1200 nM |
| COc1ccc(N(C)c2nc(C)nc3c2CCCCC3)cc1 [Compound 2k, N-(4-Methoxyphenyl)-N,2-dimethyl-6,7,8,9-tetrahydro-5H-cyclohepta[d]pyrimidin-4-amine] | 39 ± 6 nM |
| COc1ccc2c(c1)CCCN2c1nc2c(c(N3CCCc4cc(OC)ccc43)n1)CCCC2 [Compound 2p, 2,4-Bis(6-methoxy-3,4-dihydroquinolin-1(2H)-yl)-5,6,7,8-tetrahydroquinazoline] | 510 ± 33 nM |
